In the first experiment the target is T1, PD-1/PD-L1 (Homo sapiens, UniProt Q9NZQ7).
T1 construct: Recombinant human PD-L1 protein (19-238) with a His-tag at the C-terminus; purchased AcroBiosystems PD1-H5229 (PD-L1); PD1-H5257 (PD-1)
T1 sequence (Q9NZQ7 19-238): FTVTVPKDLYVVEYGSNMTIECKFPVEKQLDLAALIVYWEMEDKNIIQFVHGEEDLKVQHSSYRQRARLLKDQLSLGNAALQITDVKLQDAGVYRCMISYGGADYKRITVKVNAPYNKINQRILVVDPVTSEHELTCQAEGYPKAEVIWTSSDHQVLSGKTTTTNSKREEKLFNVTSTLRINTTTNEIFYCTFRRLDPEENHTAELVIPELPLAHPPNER
As to the kind of experiment: PD-1/PD-L1 homogenous time-resolved fluorescence (HTRF) binding assay. Particulars: recombinant human PD-L1 (19-238) His-tag / human PD-1 (25-167) Fc tag, class symbols. The protocol:
Resolved Fluorescence (HTRF) Binding Assay
The assays were conducted in a standard black 384-well polystyrene plate with a final volume of 20 μL. Inhibitors were first serially diluted in DMSO and then added to the plate wells before the addition of other reaction components. The final concentration of DMSO in the assay was 1%. The assays were carried out at 25° C. in the PBS buffer (pH 7.4) with 0.05% Tween-20 and 0.1% BSA. Recombinant human PD-L1 protein (19-238) with a His-tag at the C-terminus was purchased from AcroBiosy stems (PD1-H5229). Recombinant human PD-1 protein (25-167) with Fc tag at the C-terminus was also purchased from AcroBiosystems (PD1-H5257). PD-L1 and PD-1 proteins were diluted in the assay buffer and 10 μL was added to the plate well. Plates were centrifuged and proteins were preincubated with inhibitors for 40 min. The incubation was followed by the addition of […] of HTRF detection buffer supplemented with Europium cryptate-labeled anti-human IgG (PerkinElmer-AD0212) specific for Fc and anti-His antibody conjugated to SureLight®-Allophycocyanin (APC, PerkinElmer-AD0059H). After centrifugation, the plate was incubated at 25° C. for 60 min. Before reading on a PHERAstar FS plate reader (665 nm/620 nm ratio). Final concentrations in the assay were […] PD1, 10 nM PD-L1, 1 nM europium anti-human IgG and 20 nM anti-His-Allophycocyanin. IC50 determination was performed by fitting the curve of percent control activity versus the log of the inhibitor concentration using the GraphPad Prism 5.0 software.
Data obtained for the Example compounds using the PD-1/PD-L1 homogenous time-resolved fluorescence (HTRF) binding assay described in Example A is provided in Table 4.
A general note: In TR-FRET formats the signal depends on donor and acceptor labels being close together.
As for `Cc1c(NC(=O)c2nc3c(o2)CNCC3)cccc1-c1cccc(NC(=O)c2nc3c(s2)CNCC3)c1C` [Example 14, N-(2,2′-dimethyl-3′-(4,5,6,7-tetrahydrothiazolo[5,4-c]pyridine-2-carboxamido)-[1,1′-biphenyl]-3-yl)-4,5,6,7-tetrahydrooxazolo[5,4-c]pyridine-2-carboxamide], the IC50 is < 25 nM.

For `Cc1c(Nc2nccc3cc(CNCC(=O)O)cnc23)cccc1-c1cccc(Nc2nccc3cc(CN4CC[C@H](N(C)C)C4)cnc23)c1C` [Example 154, (S)-((8-((3′-((3-((3-(dimethylamino)pyrrolidin-1-yl)methyl)-1,7-naphthyridin-8-yl)amino)-2,2′-dimethyl-[1,1′-biphenyl]-3-yl)amino)-1,7-naphthyridin-3-yl)methyl)glycine], the IC50 was < 25 nM.

In the case of `Cc1c(NC(=O)c2cc3c(s2)CCNC3)cccc1-c1cccc(NC(=O)c2nc3c(s2)CNCC3)c1C` [Example 15, N-(2,2′-dimethyl-3′-(4,5,6,7-tetrahydrothieno[3,2-c]pyridine-2-carboxamido)-[1,1′-biphenyl]-3-yl)-4,5,6,7-tetrahydrothiazolo[5,4-c]pyridine-2-carboxamide], the half-inhibitory concentration (IC50) was < 25 nM.

Turning to `Cc1c(NC(=O)c2nc3c(s2)CNCC3)cc(F)cc1-c1cc(F)cc(NC(=O)c2nc3c(s2)CNCC3)c1C` [Example 96, N,N′-(5,5′-difluoro-2,2′-dimethyl-[1,1′-biphenyl]-3,3′-diyl)bis(4,5,6,7-tetrahydrothiazolo[5,4-c]pyridine-2-carboxamide)], the half-maximal inhibitory concentration (IC50) is < 25 nM.

For the compound “2-((3′-(6,6-dimethyl-5,6,7,8-tetrahydro-614-1,6-naphthyridin-7-ylium-2-carboxamido)-2,2′-dimethyl-[1,1′-biphenyl]-3-yl)carbamoyl)-6,6-dimethyl-5,6,7,8-tetrahydro-1,6-naphthyridin-6-ium chloride [Example 171]”, the half-inhibitory concentration (IC50) is < 25 nM.

Consider `N#Cc1c(NC(=O)c2cn3c(n2)CNCC3)cccc1-c1cccc(NC(=O)c2cn3c(n2)CNCC3)c1C#N` [Example 40, N,N′-(2,2′-dicyano-[1,1′-biphenyl]-3,3′-diyl)bis(5,6,7,8-tetrahydroimidazo[1,2-a]pyrazine-2-carboxamide)], for which the IC50 was < 25 nM.

On to “1,1′-bis((6,7-dihydro-4H-512-thiazolo[5,4-c]pyridin-2-yl)methyl)-4,4′-biindoline [Example 46]”, for which the IC50 was < 25 nM.

On to `CNC(C)c1cnc(C(=O)Nc2cccc(-c3cccc(NC(=O)c4cnc(C(C)NC)cn4)c3C)c2C)cn1` (centres unmarked) [Example 180, N,N′-(2,2′-dimethyl-[1,1′-biphenyl]-3,3′-diyl)bis(5-(1-(methylamino)ethyl)pyrazine-2-carboxamide)], for which the IC50 was < 25 nM.

Consider `Cc1c(Nc2nccc3cc(CNCC(=O)O)cnc23)cccc1-c1cccc2c1CCN2C(=O)C1=NC2CCN(CC(=O)O)CC2S1` (centres unmarked) [Example 160, ((8-((3-(1-(5-(carboxymethyl)-3a,4,5,6,7,7a-hexahydrothiazolo[5,4-c]pyridine-2-carbonyl)indolin-4-yl)-2-methylphenyl)amino)-1,7-naphthyridin-3-yl)methyl)glycine], for which the IC50 was < 25 nM.

As for `Cc1c(Nc2nccc3cc(CNCCO)cnc23)cccc1-c1cccc(Nc2nccc3cc(CNCC(F)(F)F)cnc23)c1C` [Example 156, 2-(((8-((2,2′-dimethyl-3′-((3-(((2,2,2-trifluoroethyl)amino)methyl)-1,7-naphthyridin-8-yl)amino)-[1,1′-biphenyl]-3-yl)amino)-1,7-naphthyridin-3-yl)methyl)amino)ethan-1-ol], the 50% inhibitory concentration (IC50) was < 25 nM.

As to `Cc1c(NC(=O)c2nc3c(s2)CN(CCO)CC3)cccc1-c1cccc(NC(=O)c2nc3c(s2)CN(CCO)CC3)c1C` [Example 82, N,N′-(2,2′-dimethyl-[1,1′-biphenyl]-3,3′-diyl)bis(5-(2-hydroxyethyl)-4,5,6,7-tetrahydrothiazolo[5,4-c]pyridine-2-carboxamide)], the IC50 is < 25 nM.

On to `Cc1c(NC(=O)c2nc3c(s2)CNCC3)cc(Cl)cc1-c1cc(Cl)cc(NC(=O)c2nc3c(s2)CNCC3)c1C` [Example 93, N,N′-(5,5′-dichloro-2,2′-dimethyl-[1,1′-biphenyl]-3,3′-diyl)bis(4,5,6,7-tetrahydrothiazolo[5,4-c]pyridine-2-carboxamide)], for which the IC50 was < 25 nM.

In the case of `Cc1nc(C(=O)Nc2cccc(-c3cccc4c3CCN4C(=O)c3nc(C)c(CN4CCCC[C@H]4C(=O)O)s3)c2)sc1CN1CCCC[C@H]1C(=O)O` [Example 62, (S)-1-((2-(3-(1-(5-(((S)-2-carboxypiperidin-1-yl)methyl)-4-methylthiazole-2-carbonyl)indolin-4-yl)phenylcarbamoyl)-4-methylthiazol-5-yl)methyl)piperidine-2-carboxylic acid], the IC50 was < 25 nM.

On to `CC(C(=O)NS(C)(=O)=O)N1CCc2nc(C(=O)N3CCc4c(-c5cccc6c5CCN6C(=O)c5nc6c(s5)CN(C(C)C(=O)NS(C)(=O)=O)CC6)cccc43)sc2C1` (centres unmarked) [Example 127, 2,2′-(([4,4′-biindoline]-1,1′-dicarbonyl)bis(6,7-dihydrothiazolo[5,4-c]pyridine-2,5(4H)-diyl))bis(N-(methylsulfonyl)propanamide)], for which the IC50 was < 25 nM.

As to `O=C(c1nc2c(s1)CN(CC(F)F)CC2)N1CCc2c(-c3cccc4c3CCN4C(=O)c3nc4c(s3)CN(CC(F)F)CC4)cccc21` [Example 85, [4,4′-biindoline]-1,1′-diylbis((5-(2,2-difluoroethyl)-4,5,6,7-tetrahydrothiazolo[5,4-c]pyridin-2-yl)methanone)], the IC50 is 25 to 100 nM.

As for `O=C(c1ncc(CNCCO)s1)N1CCc2c(-c3cccc4c3CCN4C(=O)c3ncc(CNCCO)s3)cccc21` [Example 70, [4,4′-biindoline]-1,1′-diylbis((5-(((2-hydroxyethyl)amino)methyl)thiazol-2-yl)methanone)], the IC50 is < 25 nM.

As for `Cc1c(NC(=O)c2cn3c(n2)CNCC3)cccc1-c1cccc(NC(=O)c2cn3c(n2)CNCC3)c1C` [Example 8, N,N′-(2,2′-dimethyl-[1,1′-biphenyl]-3,3′-diyl)bis(5,6,7,8-tetrahydroimidazo[1,2-a]pyrazine-2-carboxamide)], the IC50 is < 25 nM.

For the compound `Cc1c(-c2cccc(N(C)C(=O)c3cc4c(s3)CNCC4)c2C)cccc1N(C)C(=O)c1cn2c(n1)CNCC2` [Example 5, N-(2,2′-dimethyl-3′-(N-methyl-5,6,7,8-tetrahydroimidazo[1,2-a]pyrazine-2-carboxamido)-[1,1′-biphenyl]-3-yl)-N-methyl-4,5,6,7-tetrahydrothieno[2,3-c]pyridine-2-carboxamide], the IC50 fell in the range of 100 to 200 nM.

For `COC(=O)NC1(CN2CCc3nc(C(=O)N4CCc5c(-c6cccc7c6CCN7C(=O)c6nc7c(s6)CN(CC6(NC(=O)OC)CC6)CC7)cccc54)sc3C2)CC1` [Example 132, dimethyl (((([4,4′-biindoline]-1,1′-dicarbonyl)bis(6,7-dihydrothiazolo[5,4-c]pyridine-2,5(4H)-diyl))bis(methylene))bis(cyclopropane-1,1-diyl))dicarbamate], the IC50 is 25 to 100 nM.

For `Cc1nc(C(=O)Nc2cccc(-c3cccc4c3CCN4C(=O)c3nc(C)c(CN4CCCC[C@H]4C(=O)O)s3)c2Cl)sc1CN1CCCC[C@H]1C(=O)O` [Example 60, (S)-1-((2-(3-(1-(5-(((S)-2-carboxypiperidin-1-yl)methyl)-4-methylthiazole-2-carbonyl)indolin-4-yl)-2-chlorophenylcarbamoyl)-4-methylthiazol-5-yl)methyl)piperidine-2-carboxylic acid], the 50% inhibitory concentration (IC50) was < 25 nM.

In the case of `Cc1c(NCc2nc3c(s2)CNCC3)cccc1-c1cccc(NCc2nc3c(s2)CNCC3)c1C` [Example 25, 2,2′-dimethyl-N3,N3′-bis((4,5,6,7-tetrahydrothiazolo[5,4-c]pyridin-2-yl)methyl)-[1,1′-biphenyl]-3,3′-diamine], the IC50 fell in the range of 25 to 100 nM.

As to `Cc1c(Nc2nccc3cc(CN4CC(O)C4)cnc23)cccc1-c1cccc(Nc2nccc3cc(CN4CC(O)C4)cnc23)c1C` [Example 150, 1,1′-((((2,2′-dimethyl-[1,1′-biphenyl]-3,3′-diyl)bis(azanediyl))bis(1,7-naphthyridine-8,3-diyl))bis(methylene))bis(azetidin-3-ol)], the concentration for half-maximal inhibition (IC50) was < 25 nM.

The same experiment, now with this note: recombinant human PD-L1 (19-238) His-tag / human PD-1 (25-167) Fc tag, numeric values.
With `Cc1c(NC(=O)c2nc3c(s2)CNCC3)cccc1-c1ccccc1` [Com. EX. No. 1, N-(2-methyl-[1,1′-biphenyl]-3-yl)-4,5,6,7-tetrahydrothiazolo[5,4-c]pyridine-2-carboxamide, reference compound], the IC50 came to 212 nM.

A word on the IC50: it is the concentration that inhibits the measured activity by half.

For the origin of these results see patent US20210040118A1, “IMMUNOMODULATORS, COMPOSITIONS AND METHODS THEREOF” (BETTA PHARMACEUTICALS CO., LTD, priority 2018, published 2021).
